In US20030170656A1, “Method of screening for factors that modulate gene expression” (Chiron Corporation, priority 1995, published 2003):

B1: 16.1: 61 amino acid polypeptide of SEQ ID NO. 2, deconvoluted from pool 16.1, capable of inducing c-fos transcription in NIH3T3 cells (protein)
chain: MTLMVFKCSDNLLLIVVYAKVFPSTSCIHYQIYTCKFEVLLFSQHELKIFCNSARQGSSCL

Key:
Assay type in all cases: cell-based
[1] = test system: c-fos mRNA in NIH3T3 cells; experiment: c-fos induction by bDNA assay in NIH3T3 cells (small molecule pool screen with PDGFBB); details: bDNA against c-fos mRNA, read-out: concentration giving 50% of maximal c-fos induction
Method: Small molecule library pools are prepared as described above, and 48 such pools were marked and divided for screening. An aliquot of each pool (2 μM final concentration) was placed in a micro-well on a bed of NIH3T3 cells in a microwell and incubated at 37° C. for 45 minutes with 1 ηM PDGFBB.
Each well was assayed by induction of c-fos messenger by bDNA assay against c-fos mRNA. In a previous study (described in example 8), a bDNA assay detected induction of c-fos mRNA by less than 0.01 ηM of PDGFBB (PDGF β chain dimer). 1 ηM of PDGFBB gives 50% of maximal c-fos induction. As previously described, administration of PDGFBB to cells, including FTL cells, induces the transcription of the c-fos gene.
In this study, induction or reduction of the c-fos gene was measured by bDNA. Where an agonist was present in the small molecule library pool, c-fos induction was expected to occur at about the same level or greater as induction by administration of PDGFBB. Where an antagonist was present in the small molecule library pool, c-fos transcription was expected to be reduced perhaps to non-detectable levels. […]

[2] = test system: c-fos mRNA in FTL cells; experiment: bDNA assay against c-fos mRNA in NIH3T3 derived FTL cells
Method: To assay for a growth factor that stimulates the expression of the c-fos gene, NIH3T3 derived FTL cells were selected as the responsive cells. A library for screening is prepared from human tissue as described above for expression in Xenopus oocytes. Plasmid DNAs from small library pools of 100 to 500 independent colonies per pool were constructed and in vitro transcribed into cRNAs. Each pool of cRNAs were injected into Xenopus laevis oocytes and cultured at 18° C. overnight. The next day, each oocyte was then cocultured on a bed of NIH3T3 derived FTL cells in a microwell and incubated at 37° C. for three hours.
The oocytes were removed and induction of c-fos messenger was measured by bDNA assay against c-fos mRNA. […] In the present experiment, a bDNA assay detected a lower concentration of library, with the ability to detect from 4000 FTL cells less than 0.01 nM of PDGFBB (PDGF β chain dimer). As previously described, administration of PDGFBB to cells, including FTL cells, induces the transcription of the c-fos gene.

[3] = test system: serum responsive element (SRE)-luciferase construct in FTL cells; experiment: SRE-luciferase reporter assay (luciferase assay) in NIH3T3 derived FTL cells; details: 4000 cells
Method: (§1) A construct comprising in operable linkage a luciferase reporter gene and the serum responsive element (SRE) was stably transfected into NIH3T3 derived FTL cells which were selected as the responsive cells. Plasmid DNAs from small library pools of 100 to 500 independent colonies per pool were constructed and in vitro transcribed into cRNAs. Each pool of cRNAs were injected into Xenopus laevis oocytes and cultured at 18° C. overnight. The next day, each oocyte was then cocultured with FTL cells transfected with the SRE-luciferase construct and incubated at 37° C. for three hours in a microwell. The oocytes were removed and induction of luciferase gene was assayed by luciferase assay, and also by bDNA assay against luciferase mRNA. The luciferase assay was sensitive to 4000 cells with a minimum concentration of 1 nM of PDGFBB (PDGF β chain dimer). The bDNA assay detected a lower concentration of library, with the ability to detect from 4000 cells less than 0.01 nM of PDGFBB.

[4] = test system: luciferase mRNA (SRE-luciferase construct) in FTL cells; experiment: bDNA assay against luciferase mRNA in SRE-luciferase FTL cells; details: 4000 cells
Method: as §1

[5] = test system: c-fos transcription in NIH3T3 cells; experiment: Xenopus oocyte/NIH3T3 coculture, c-fos induction by bDNA assay; details: compared to non-stimulated NIH3T3 cells
Text: Manual defolliculated Xenopus oocytes are excellent at expressing in vitro transcribed cRNA and its background c-fos induction activity is almost none. Taking advantage of the size of Xenopus oocytes, a coculture system using Xenopus oocytes and NIH3T3 cells was developed in microplates which allowed the detection of both diffusible and membrane-attached nondiffusible growth factors. However, it was shown that damaged oocytes produce significant c-fos induction in NIH3T3 cells. A repeatable condition was established, however, which was sensitive enough to detect PDGF c-sis activity secreted from an oocyte injected with 0.08 ng of PDGF c-sis cRNA. This sensitivity was shown allowing for detection of PDGF c-sis activity in a pool of 600 clones. Screening was then conducted of 350 pools of a mouse brain cDNA library with a diversity of an average of 150 clones per pool, and 100 pools of a Xenopus embryo library with a diversity of 80 clones per pool. Considering the biological variation between oocytes, each pool of cRNA was injected into three oocytes and subsequently yielded triplicate results.
Among these 450 pools, 61 pools were initially found positive. After multiple repeated experiments, 14 remained moderately positive. […] The nucleotide and translated protein sequence for clone 16.1 was determined, and is represented in SEQ ID NO. […]

Row | Molecule | EC50 [1] | concentration detectable by bDNA assay against c-fos mRNA ([2]; 4000 FTL cells) | concentration inducing c-fos mRNA detected by bDNA assay ([2]; as restated in Example 9 from Example 8) | minimum concentration detected by luciferase assay [3] | concentration detectable by bDNA assay against luciferase mRNA [4] | induction of c-fos transcription [5] | induction of c-fos transcription ([5]; listed as SEQ ID NO. 2)
1 | PDGFBB: PDGF β chain dimer | 1 nM | less than 0.01 nM | less than 0.01 ηM | 1 nM | less than 0.01 nM |  | 
2 | B1 |  |  |  |  |  | 5 fold | about 5 fold
